From paper PMC9686568, “Novel Alligator Cathelicidin As-CATH8 Demonstrates Anti-Infective Activity against Clinically Relevant and Crocodylian Bacterial Pathogens” (Antibiotics, 2022)
Converted amounts (≈) assume the structure as drawn. Like-named read-outs stand apart in the source and are kept apart here. Residues, ends and D or L forms follow the SMILES beside them.

Columns and labels:
E. cloacae = assay type: cell-based, E. cloacae 218R1
Method: (§1) The following bacterial pathogens were used in this study: S. enterica subsp. enterica serovar Typhimurium ATCC 14028, E. coli O157:H7 [83], the clinical isolates S. aureus SAP0017 [84] and USA300 LAC [85], E. faecium #1-1 [85], A. baumannii Ab5075 [85] and E. cloacae 218R1 [85], as well as P. aeruginosa PAO1 [34], P. vulgaris HSC7200-T2 (Hancock Lab strain collection) and K. pneumoniae KPLN49 [85].
(§2) Overnight cultures were grown in LB at 37 °C with shaking at 250 rpm, except for E. faecium, which was grown in BHI medium.
(§3) The antimicrobial activity of the crocCATHs was evaluated with the broth microdilution method as described previously. MIC was defined as the first peptide or antibiotic concentration without visible bacterial growth. Reported values are the statistical mode of at least three independent experiments.

E. coli = assay type: cell-based, E. coli O157:H7; conditions: microdilution in MHB, first concentration without visible growth, mode of at least three independent experiments
Method: as §1, §2, §3

S. aureus = test: MIC, broth microdilution in MHB; assay type: cell-based; conditions: first concentration without visible growth, mode of at least three independent experiments
Method: as §1, §2, §3

P. aeruginosa biofilm = assay type: cell-based, P. aeruginosa PAO1
Method: (§4) Bacterial biofilm inhibition assays were performed using a microtiter assay as described by Haney et al.. For E. cloacae, E. coli, P. aeruginosa and S. Typhimurium, assays were performed using BM2 minimal medium (62 mM potassium phosphate, 7 mM ammonium sulfate, 0.5 mM magnesium sulfate, pH 7.0) supplemented with 0.4% glucose (w/v). Antibiofilm activity against A. baumannii and S. aureus SAP0017 was evaluated in 10% TSB (v/v) media supplemented with 0.1% glucose (w/v), whereas 10% THB (v/v) medium was employed for P. vulgaris.
(§5) Data from at least three independent experiments were analyzed as the percentage of biofilm mass compared to the untreated control. After crystal violet staining, MBIC95 was then calculated for each peptide, defined as the minimal peptide concentration capable of inhibiting mean biofilm growth by at least 95% compared to the untreated control.

A. baumannii = test: MIC, broth microdilution in MHB; assay type: cell-based, A. baumannii Ab5075; conditions: first concentration without visible growth, mode of at least three independent experiments
Method: as §1, §2, §3

E. faecium = test: MIC, broth microdilution in MHB; assay type: cell-based, E. faecium #1-1; conditions: first concentration without visible growth, mode of at least three independent experiments
Method: as §1, §2, §3

P. vulgaris = assay type: cell-based, P. vulgaris HSC7200-T2; conditions: microdilution in MHB, first concentration without visible growth, mode of at least three independent experiments
Method: as §1, §2, §3

K. pneumoniae = test: MIC, broth microdilution in MHB; assay type: cell-based, K. pneumoniae KPLN49; conditions: first concentration without visible growth, mode of at least three independent experiments
Method: as §1, §2, §3

E. coli biofilm = assay type: cell-based, E. coli O157:H7; conditions: BM2 minimal medium + 0.4% glucose, crystal violet, at least 95% inhibition of mean biofilm growth, at least three independent experiments
Method: as §4, §5

S. Typhimurium = assay type: cell-based, S. enterica subsp. enterica serovar Typhimurium ATCC 14028
Method: as §1, §2, §3

P. aeruginosa = test: MIC, broth microdilution in MHB; assay type: cell-based, P. aeruginosa PAO1; conditions: first concentration without visible growth, mode of at least three independent experiments
Method: as §1, §2, §3

[1] = subcutaneous, 15 mg/kg, peptide alone, uninfected animals
From the text: The antibacterial capacities of As-CATH8 and Gg-CATH5 were further evaluated in the murine skin infection/abscess model. Mice were inoculated with clinical isolates of S. aureus and A. baumannii, two frequent causes of human skin infections. […] Therefore, the peptides were considered non-toxic at the doses used.

[2] = tested on: peripheral blood mononuclear cells (PBMCs); test: LDH release cytotoxicity assay; assay type: cell-based; conditions: human PBMCs; at the highest concentrations tested (5 and 10 μM); relative to Triton X-100 control
Method: Human PBMCs were isolated from human blood following the ethics protocols of the University of British Columbia, Canada. Consent was obtained from healthy volunteers before blood donation. Isolation and treatment of unstimulated PBMC was performed as previously described.
(§6) Peptide-induced cytotoxicity was assessed by measuring the extracellular activity of the LDH enzyme using the Cytotoxicity Detection Kit (MilliporeSigma, Burlington, MA, USA) as previously described. The percentage of LDH release relative to the untreated (negative) and Triton X-100 (positive, 100% cytotoxicity) control was assessed for at least three biological replicates and recorded as percent cytotoxicity.

[3] = tested on: human bronchial epithelial (HBE) cells; test: LDH release cytotoxicity assay; assay type: cell-based; conditions: HBE cells (16HBE14o-); at the highest concentrations tested (5 and 10 μM); relative to Triton X-100 control
Method: Immortalized human bronchial epithelial (HBE) cells (16HBE14o-) were used for in vitro cytotoxicity experiments as described elsewhere.
as §6

Compound CC(C)C[C@H](NC(=O)[C@H](C)NC(=O)[C@@H](NC(=O)[C@H](CC(N)=O)NC(=O)[C@H](CCCNC(=N)N)NC(=O)CNC(=O)[C@@H](NC(=O)[C@H](CCCCN)NC(=O)[C@H](CCCNC(=N)N)NC(=O)[C@H](Cc1c[nH]c2ccccc12)NC(=O)[C@H](CC(N)=O)NC(=O)[C@@H](NC(=O)[C@H](CCCNC(=N)N)NC(=O)[C@@H](N)CCCCN)C(C)C)C(C)C)[C@@H](C)O)C(=O)NCC(=O)N[C@@H](C)C(=O)N[C@@H](CO)C(=O)N[C@@H](Cc1ccc(O)cc1)C(=O)N[C@H](C(=O)N[C@@H](CC(C)C)C(=O)N[C@@H](CO)C(=O)N[C@@H](Cc1ccccc1)C(=O)N[C@@H](CC(C)C)C(=O)NCC(=O)O)C(C)C [As-CATH7] (H-KRVNWRKVGRNTALGASYVLSFLG-OH) has an MIC (E. cloacae) of 0.5 µM (≈ 1.35 µg/mL), an MIC (E. coli) of 2 µM (≈ 5.39 µg/mL) and an MIC (S. aureus) of 4 µM (≈ 10.8 µg/mL). The MBIC95 (P. aeruginosa biofilm) was > 172 µg/mL, the MIC (A. baumannii) was 0.25 µM (≈ 0.673 µg/mL) and the MIC (E. faecium) was >64 µM. For the same compound, the MIC (P. vulgaris) was >64 µM, the MIC (K. pneumoniae) was 1 µM (≈ 2.69 µg/mL) and the MBIC95 (E. coli biofilm) was 32 µM. For the same compound, the MIC (S. Typhimurium) was 2 µM and the MIC (P. aeruginosa) was 4 µM (≈ 10.8 µg/mL).

Work on CC[C@H](C)[C@H](NC(=O)[C@H](Cc1ccc(O)cc1)NC(=O)[C@@H]1CCCN1C(=O)[C@H](CC(C)C)NC(=O)[C@H](CC(C)C)NC(=O)[C@H](CCCCN)NC(=O)[C@H](CC(C)C)NC(=O)[C@H](C)NC(=O)[C@@H](NC(=O)[C@H](CCCNC(=N)N)NC(=O)CNC(=O)[C@@H](NC(=O)[C@H](CCCCN)NC(=O)[C@H](C)NC(=O)[C@H](Cc1c[nH]c2ccccc12)NC(=O)[C@H](CC(N)=O)NC(=O)[C@@H](NC(=O)[C@H](CCCNC(=N)N)NC(=O)[C@@H](N)CCCCN)C(C)C)C(C)C)[C@@H](C)O)C(=O)N[C@@H](Cc1ccccc1)C(=O)NCC(=O)O [As-CATH8] (H-KRVNWAKVGRTALKLLPYIFG-OH) yielded an MIC (E. cloacae) of 0.5 µM (≈ 1.22 µg/mL), an MIC (E. coli) of 1 µM (≈ 2.43 µg/mL) and an MIC (S. aureus) of 0.5 µM (≈ 1.22 µg/mL). For the same compound, the MIC (A. baumannii) was 0.25 µM (≈ 0.608 µg/mL), the MIC (E. faecium) was >64 µM and the MIC (P. vulgaris) was 4 µM (≈ 9.72 µg/mL). It also gave an MIC (K. pneumoniae) of 0.5 µM (≈ 1.22 µg/mL), an MBIC95 (E. coli biofilm) of 1 µM and an MIC (S. Typhimurium) of 1 µM. For the same compound, the MIC (P. aeruginosa) was 1 µM (≈ 2.43 µg/mL).

In the case of CC[C@H](C)[C@H](NC(=O)[C@H](C)NC(=O)CNC(=O)[C@H](CC(N)=O)NC(=O)[C@H](CC(C)C)NC(=O)[C@@H](NC(=O)[C@H](CCCCN)NC(=O)[C@H](CCCCN)NC(=O)[C@H](Cc1c[nH]c2ccccc12)NC(=O)[C@H](Cc1c[nH]c2ccccc12)NC(=O)[C@H](CCCCN)NC(=O)[C@H](CCCNC(=N)N)NC(=O)[C@H](CCCNC(=N)N)NC(=O)[C@@H](N)[C@@H](C)O)C(C)C)C(=O)N[C@@H](CCCCN)C(=O)N[C@H](C(=O)N[C@@H](C)C(=O)N1CCC[C@H]1C(=O)N[C@@H](Cc1ccc(O)cc1)C(=O)N[C@H](C(=O)N[C@@H](CC(C)C)C(=O)N[C@@H](CC(=O)O)C(=O)O)[C@@H](C)CC)[C@@H](C)CC [Gg-CATH5] (H-TRRKWWKKVLNGAIKIAPYILD-OH), the MIC (E. coli) is reported as 4 µM (≈ 10.7 µg/mL), the MIC (S. aureus) is reported as 1 µM (≈ 2.67 µg/mL) and the MIC (A. baumannii) is reported as 0.5 µM (≈ 1.34 µg/mL). For the same compound, the MIC (E. faecium) was >64 µM, the MIC (P. vulgaris) was 8 µM (≈ 21.4 µg/mL) and the MIC (K. pneumoniae) was 0.5 µM (≈ 1.34 µg/mL). For the same compound, the MBIC95 (E. coli biofilm) was 32 µM and the MIC (P. aeruginosa) was 1 µM (≈ 2.67 µg/mL).

With CSCC[C@H](NC(=O)[C@@H](NC(=O)[C@H](Cc1ccc(O)cc1)NC(=O)[C@H](CO)NC(=O)[C@H](C)NC(=O)CNC(=O)[C@H](CC(C)C)NC(=O)CNC(=O)[C@@H](NC(=O)[C@H](CCCCN)NC(=O)[C@H](CCCNC(=N)N)NC(=O)[C@H](Cc1c[nH]c2ccccc12)NC(=O)[C@H](CC(N)=O)NC(=O)[C@@H](NC(=O)[C@H](CCCNC(=N)N)NC(=O)[C@@H](N)CCCCN)C(C)C)C(C)C)C(C)C)C(=O)N[C@@H](CO)C(=O)N[C@@H](Cc1c[nH]c2ccccc12)C(=O)N[C@@H](CC(C)C)C(=O)NCC(=O)O [Gg-CATH7] (H-KRVNWRKVGLGASYVMSWLG-OH) the MIC (E. cloacae) was 2 µM (≈ 4.62 µg/mL), the MBIC95 (P. aeruginosa biofilm) was > 148 µg/mL and the MIC (S. Typhimurium) was 4 µM.

For CC[C@H](C)[C@H](NC(=O)[C@H](CCCCN)NC(=O)[C@H](CCC(=O)O)NC(=O)[C@H](CCCCN)NC(=O)[C@H](CO)NC(=O)[C@H](CCCCN)NC(=O)[C@H](CCCNC(=N)N)NC(=O)[C@H](Cc1ccccc1)NC(=O)[C@H](Cc1ccccc1)NC(=O)[C@H](CC(=O)O)NC(=O)CNC(=O)[C@H](CC(C)C)NC(=O)[C@@H](N)CC(C)C)C(=O)NCC(=O)N[C@@H](CCCCN)C(=O)N[C@@H](CCC(=O)O)C(=O)N[C@@H](Cc1ccccc1)C(=O)N[C@@H](CCCCN)C(=O)N[C@@H](CCCNC(=N)N)C(=O)N[C@H](C(=O)N[C@H](C(=O)N[C@@H](CCC(N)=O)C(=O)N[C@@H](CCCNC(=N)N)C(=O)N[C@H](C(=O)N[C@@H](CCCCN)C(=O)N[C@@H](CC(=O)O)C(=O)N[C@@H](Cc1ccccc1)C(=O)N[C@@H](CC(C)C)C(=O)N[C@@H](CCCNC(=N)N)C(=O)N[C@@H](CC(N)=O)C(=O)N[C@@H](CC(C)C)C(=O)N[C@H](C(=O)N1CCC[C@H]1C(=O)N[C@@H](CCCNC(=N)N)C(=O)N[C@H](C(=O)N[C@@H](CCC(=O)O)C(=O)N[C@@H](CO)C(=O)O)[C@@H](C)O)C(C)C)[C@@H](C)CC)C(C)C)[C@@H](C)CC [LL-37], the “Tissue damage or peptide precipitation at the site of injection” value [1] was “no evidence of tissue damage or peptide precipitation”, the “Cytotoxicity (LDH release)” value [2] was “moderately cytotoxic” and the MIC (S. Typhimurium; S. Typhimurium, microdilution in MHB, value in brackets of Table S4) was 72 µg/mL. For the same compound, the “Cytotoxicity (LDH release)” value [3] was “moderately cytotoxic”.

With “VRLIVAVRIWRR-NH2 [IDR-1018, immunomodulatory peptide used as control]” the “Cytotoxicity (LDH release)” value [2] was “low cytotoxicity” and the “Cytotoxicity (LDH release)” value [3] was “low cytotoxicity”.
